Where a name gives a salt, the structure may show the parent alone.

In patent US20100286128A1 (priority 2007, published 2010) one finds IC50 data, which are given here for one compound.

The target in the test is α7-subtype of nicotinic receptors (Rattus norvegicus, UniProt Q05941). The experiment in a line: biochemical. The class given is binding.
Sequence of α7-subtype of nicotinic receptors (Q05941 23-502): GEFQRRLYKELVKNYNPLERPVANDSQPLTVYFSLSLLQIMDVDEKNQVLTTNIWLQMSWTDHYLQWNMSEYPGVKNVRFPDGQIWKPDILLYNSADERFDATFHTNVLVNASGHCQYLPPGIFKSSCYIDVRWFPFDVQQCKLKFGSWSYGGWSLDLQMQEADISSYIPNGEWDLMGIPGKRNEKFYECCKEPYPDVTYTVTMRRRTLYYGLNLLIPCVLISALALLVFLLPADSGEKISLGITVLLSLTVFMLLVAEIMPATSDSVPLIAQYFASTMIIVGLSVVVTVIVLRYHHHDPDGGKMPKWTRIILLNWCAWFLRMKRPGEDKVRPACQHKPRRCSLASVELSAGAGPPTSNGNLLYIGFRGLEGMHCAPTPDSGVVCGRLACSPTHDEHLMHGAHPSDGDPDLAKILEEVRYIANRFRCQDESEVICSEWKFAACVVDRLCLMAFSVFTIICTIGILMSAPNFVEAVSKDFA

A word on the IC50: it is the point on the concentration scale where inhibition reaches its midpoint. As for `c1csc(-c2cnc(N3CCN4CCC3CC4)nc2)c1` [Compound A1, 4-(5-Thiophen-2-yl-pyrimidin-2-yl)-1,4-diaza-bicyclo[3.2.2]nonane hydrochloric acid salt], the IC50 is below 100 nM.
